Laboratory results taken from patent publication US20030232409A1, “Immortal porcine cells” (Regents of the University of Minnesota, priority 2002, published 2003).

Experiments:
PEGE primary cells [1] = experiment: Short-circuit current (Isc) of cell monolayers in Ussing chambers, primary cells; type: cell-based, porcine
Description: (§1) PEGE primary cells, isolated and cultured as previously described (Deachapunya and O'Grady, J. of Physiology, 508 (Part 1), 31-47 (1998)), and PEGE1 cells were used. Transepithelial resistance of cell monolayers was measured using the EVOM epithelial voltohmmeter coupled to Ag/AgCl “chopstick” electrodes (World Precision Instrument, New Haven, Conn.). After 10 days, the confluent culture inserts were mounted in Ussing Chambers, bathed on both sides with standard porcine Ringer solution which was maintained at 37° C., and bubbled with 95% O2 and 5% CO2. Transepithelial potential difference and Isc were measured with the use of voltage-clamp circuitry from JWT Engineering (Overland Park, Kans.). The data from the voltage clamp experiments was digitized, stored and analyzed using Workbench data acquisition software (Kent Scientific Corporation, Litchfield, Conn.) and recorded with a Compaq pentium microcomputer.
(§2) All values are presented as means±SEM. n is the number of monolayers. The differences between control and treatment means were analyzed using a t-test for paired or unpaired means where appropriate. A value of p<0.05 was considered statistically significant.

PEGE1 cells = experiment: Short-circuit current (Isc) of cell monolayers in Ussing chambers, immortalized cells; type: cell-based, porcine; conditions: for Mean 8 cpt cAMP-stimulated Isc / Mean 8 cpt cAMP-stimulated NPPB-sensitive Isc: n=6
Description: as §1, §2

PEGE primary cells [2] = conditions: serum-containing conditions, Deachapunya and O'Grady 1998; cited from earlier work

Nc1ncnc2c1nc(Sc1ccc(Cl)cc1)n2[C@@H]1O[C@@H]2COP(=O)(O)O[C@H]2[C@H]1O [8 cpt cAMP, 8(4-chlorophenylthiol) cAMP]
Mean 8 cpt cAMP-stimulated Isc (PEGE primary cells [1]; passage 4, 50 μM 8 cpt cAMP, n=6): 25.9 μA
Mean 8 cpt cAMP-stimulated Isc (PEGE1 cells; passage 19, 50 μM 8 cpt cAMP): 33.2 μA
Mean 8 cpt cAMP-stimulated Isc (PEGE1 cells; passage 44-51, 50 μM 8 cpt cAMP): 15.6 μA

O=C(O)c1cc([N+](=O)[O-])ccc1NCCCc1ccccc1 [NPPB, 5-nitro-2-(3phenylpropylamino) benzoic acid]
Mean PGE2-stimulated NPPB-sensitive Isc (PEGE primary cells [1]; passage 4, 100 μM NPPB after 3 μM PGE2, n=5): 24.9 μA
Mean 8 cpt cAMP-stimulated NPPB-sensitive Isc (PEGE primary cells [1]; passage 4, 100 μM NPPB after 50 μM 8 cpt cAMP, n=6): 17.6 μA
Effect on PGE2- or cAMP-stimulated increase in Isc (PEGE primary cells [2]): blocked
Mean PGE2-stimulated NPPB-sensitive Isc (PEGE1 cells; passage 19, 100 μM NPPB after 3 μM PGE2, n=6): 33.4 μA
Mean 8 cpt cAMP-stimulated NPPB-sensitive Isc (PEGE1 cells; passage 19, 100 μM NPPB after 50 μM 8 cpt cAMP): 24.3 μA
Mean PGE2-stimulated NPPB-sensitive Isc (PEGE1 cells; passage 44-51, 100 μM NPPB after 3 μM PGE2, n=5): 12.5 μA
Mean 8 cpt cAMP-stimulated NPPB-sensitive Isc (PEGE1 cells; passage 44-51, 100 μM NPPB after 50 μM 8 cpt cAMP): 14.5 μA

CCCCC[C@H](O)/C=C/[C@H]1[C@H](O)CC(=O)[C@@H]1C/C=C\CCCC(=O)O [PGE2]
Mean PGE2-stimulated Isc (PEGE primary cells [1]; passage 4, 3 μM PGE2, n=5): 40.3 μA
Effect of stimulation on Isc (PEGE primary cells [2]): increase in Isc
Mean PGE2-stimulated Isc (PEGE1 cells; passage 19, 3 μM PGE2, n=6): 69.0 μA
Mean PGE2-stimulated Isc (PEGE1 cells; passage 44-51, 3 μM PGE2, n=5): 35.0 μA

NC(=NCc1ccccc1)NC(=O)c1nc(Cl)c(N)nc1N [benzamil]
Mean benzamil-sensitive Isc (PEGE primary cells [1]; passage 4, 5 μM benzamil, n=12): 0.5 μA
Mean benzamil-sensitive Isc (PEGE1 cells; passage 19, 5 μM benzamil, n=15): 1.6 μA
Mean benzamil-sensitive Isc (PEGE1 cells; passage 44-51, 5 μM benzamil, n=15): 1.7 μA

COc1ccc2c(c1)c(CC(=O)O)c(C)n2C(=O)c1ccc(Cl)cc1 [indomethecin]
Mean indomethecin-sensitive Isc (PEGE primary cells [1]; passage 4, 10 μM indomethecin, n=12): 3.4 μA
Mean indomethecin-sensitive Isc (PEGE1 cells; passage 19, 10 μM indomethecin, n=15): 5.0 μA
Mean indomethecin-sensitive Isc (PEGE1 cells; passage 44-51, 10 μM indomethecin, n=14): 0.6 μA
